The values below come from publication PMC11701132, “Tau is a receptor with low affinity for glucocorticoids and is required for glucocorticoid-induced bone loss” (Cell Research, 2025).

One experiment deals with T1, Tau (Homo sapiens, UniProt P10636).
T1 construct: gene MAPT; purified Tau protein
The experiment is described as follows: one-step kinetic SPR (KD […]); solid phase binding with biotin-dexamethasone ([…]); DARTS in Raw264.[…] lysate ([…]).

A further experiment deals with T2, GPR97 (Homo sapiens, UniProt Q86Y34).
T2 construct: gene ADGRG3; full-length human protein with N-terminal glutathione S-transferase tag on microarray
The experiment in a line: HuProt human proteome microarray with biotin-labeled dexamethasone ([…]). The class given is binding.

T2 sequence (Q86Y34 21-549): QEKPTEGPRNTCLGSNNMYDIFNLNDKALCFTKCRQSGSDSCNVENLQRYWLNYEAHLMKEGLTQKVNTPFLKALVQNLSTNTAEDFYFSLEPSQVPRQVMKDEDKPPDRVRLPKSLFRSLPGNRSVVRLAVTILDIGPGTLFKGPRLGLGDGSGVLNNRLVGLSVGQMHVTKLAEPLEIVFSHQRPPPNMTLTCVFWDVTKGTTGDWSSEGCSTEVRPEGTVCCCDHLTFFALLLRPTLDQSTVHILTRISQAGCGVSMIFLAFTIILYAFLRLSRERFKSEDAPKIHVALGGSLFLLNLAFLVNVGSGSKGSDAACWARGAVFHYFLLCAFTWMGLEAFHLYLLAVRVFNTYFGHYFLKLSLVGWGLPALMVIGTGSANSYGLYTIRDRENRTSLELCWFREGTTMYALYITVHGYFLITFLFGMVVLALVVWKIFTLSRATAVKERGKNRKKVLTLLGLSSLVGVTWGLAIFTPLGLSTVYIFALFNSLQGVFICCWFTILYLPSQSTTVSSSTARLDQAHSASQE
T1 sequence (P10636 1-441 isoform P10636-8): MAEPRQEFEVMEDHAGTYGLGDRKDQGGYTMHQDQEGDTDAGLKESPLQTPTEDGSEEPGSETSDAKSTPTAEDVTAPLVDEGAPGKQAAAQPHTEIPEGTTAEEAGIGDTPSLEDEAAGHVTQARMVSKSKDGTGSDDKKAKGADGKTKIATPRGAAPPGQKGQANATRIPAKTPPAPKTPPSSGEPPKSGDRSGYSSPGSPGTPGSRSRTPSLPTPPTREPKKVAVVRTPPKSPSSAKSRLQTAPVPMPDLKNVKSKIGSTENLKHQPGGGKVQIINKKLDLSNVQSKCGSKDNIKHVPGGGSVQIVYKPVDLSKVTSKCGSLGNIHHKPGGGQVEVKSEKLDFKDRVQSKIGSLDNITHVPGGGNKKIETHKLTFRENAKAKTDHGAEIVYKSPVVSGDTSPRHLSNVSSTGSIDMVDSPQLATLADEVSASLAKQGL

For `C[C@@H]1C[C@H]2[C@@H]3CCC4=CC(=O)C=C[C@]4(C)[C@@]3(F)[C@@H](O)C[C@]2(C)[C@@]1(O)C(=O)CO` [dexamethasone], the Kd – broadly, the concentration at which binding is half-saturated – at Tau is approximately 380 µM. Moreover, on GPR97, the “HuProt human proteome microarray with biotin-labeled dexamethasone (0.2 and 400)” value is “dexamethasone bound to GR and GPR97, two known receptors of dexamethasone”.
